Reference: patent publication US10538545B2 (priority 2017, dated 2020)

Assays:
[1] = system: AB (wild type) zebrafish embryos; conditions: in vivo
WT-AB zebrafish embryos = conditions: in vivo
[2] = system: Tg (kdr:EGFP) zebrafish embryos; conditions: in vivo
[3] = system: soluble guanylate cyclase (sGC); design: species or system C. elegans; conditions: in vivo
metmyoglobin (metMb) = target: T1, metmyoglobin (metMb) (Equus caballus, UniProt P68082); experiment: Reaction of DNIC with metmyoglobin (nitroxyl transfer, UV-vis); type: biochemical; conditions: 10 μM DNIC + 10 μM metMb, 25 mM phosphate buffer pH 7.4
T1 construct: purchased TCl
T1 sequence (P68082 2-154 limits assumed): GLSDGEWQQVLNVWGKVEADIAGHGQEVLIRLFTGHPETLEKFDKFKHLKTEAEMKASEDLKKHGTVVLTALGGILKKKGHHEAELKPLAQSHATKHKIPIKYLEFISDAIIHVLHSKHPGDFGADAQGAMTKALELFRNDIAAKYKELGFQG
Protocol: A typical procedure for nitroxyl-transfer reaction of DNIC-2 and metmyoglobin was described below using DNIC-2a as an example, whereas reaction of DNIC-2b/DNIC-2d and metMb follows the same procedure. 10 μM of metMb in 3.3 mL of 25 mM phosphate buffer (pH 7.4) was loaded in a 4-mL quartz cuvette and sealed with rubber septum under anaerobic N2 atmosphere. 10 μM of DNIC-2a (13.0 μL of 2.5 mM stock solution of DNIC-2a in THF) was added into this aqueous solution, which is thermostated at 25° C. UV-vis spectra of this reaction solution were measured after this reaction solution was incubated for 10 minutes.
A typical procedure for reaction of DNIC-1 and metmyoglobin was described below. To a 4-mL quartz cuvette containing 10 μM of metMb in 3.3 mL of 25 mM phosphate buffer (pH 7.4), 10 μM of DNIC-1, derived from 13.0 μL of 2.5 mM stock solution of DNIC-1 in THF was added via gas-tight syringe at room temperature. The reaction solution was incubated at ambient temperature for 8 hours. No change of UV-vis spectra for this reaction solution was observed.
In example 1, the reaction of a variety of DNICs with metmyoglobin was investigated so as to verify the universal role of bridging ligands, thiolate vs. pyrazolate, on dictating the NO^−-transfer reactivity.

Molecule	Cardiac Output [1]	Fractional Shortening [1]	Heart Rate [1]	Short Axis Diameter ED(Dd) [1]	Short Axis Diameter ES(Ds) [1]	Ventricular Volume ED [1]	Ventricular Volume ED-ES [1]	Ventricular Volume ES [1]	change of diameter of heart short-axis at end systole (ES) [1]	enhancement of cardiac output [1]	enhancement of fractional shortening [1]	Survival rate of zebrafish, Day 3 (WT-AB zebrafish embryos)	Survival rate of zebrafish, Day 4 (WT-AB zebrafish embryos)	Survival rate of zebrafish, Day 5 (WT-AB zebrafish embryos)	acute toxicity on zebrafish embryo (WT-AB zebrafish embryos)	Vessel Diameter (dorsal aorta diameter) [2]	increase of the GFP fluorescence signal in CX3553 worms [3]	nitroxyl-transfer reactivity toward metmyoglobin (formation of MbNO, shift of UV-vis bands) (metmyoglobin (metMb))
CNC[C@H](O)c1ccc(O)c(O)c1 [Epinephrine, epinephrine, reference compound]	37.4 ± 6.1 nL/min	0.25 ± 0.04	144 ± 8 bpm	80.9 ± 1.4 μm	61.0 ± 2.5 μm	0.46 ± 0.05 nL	0.26 ± 0.05 nL	0.20 ± 0.03 nL										
[(NO)2Fe(μ-^NH2Pyr)2Fe(NO)2] [DNIC-2a]	48.4 ± 4.5 nL/min	0.28 ± 0.02	145 ± 7 bpm	83.3 ± 2.5 μm	59.6 ± 1.7 μm	0.55 ± 0.03 nL	0.34 ± 0.02 nL	0.21 ± 0.02 nL	significant decrease	about 2 fold	about 2 fold	100 ± 0.0%	99.6 ± 0.7%	98.4 ± 2.7%	no acute toxicity	25.6±0.6 μm	about 5.7 fold	nitroxyl transfer from DNIC-2a to metmyoglobin
